{
  "source": "patent US10927123B2",
  "about": "“Modulators of the beta-3 adrenergic receptor useful for the treatment or prevention of disorders related thereto” (Arena Pharmaceuticals, Inc., priority 2016, dated 2021)",
  "key": {"[1]": {"biological_target": "Beta-3 Adrenergic Receptor (Homo sapiens (Human), UniProt P13945)", "sequence (P13945 whole entry, species assumed)": "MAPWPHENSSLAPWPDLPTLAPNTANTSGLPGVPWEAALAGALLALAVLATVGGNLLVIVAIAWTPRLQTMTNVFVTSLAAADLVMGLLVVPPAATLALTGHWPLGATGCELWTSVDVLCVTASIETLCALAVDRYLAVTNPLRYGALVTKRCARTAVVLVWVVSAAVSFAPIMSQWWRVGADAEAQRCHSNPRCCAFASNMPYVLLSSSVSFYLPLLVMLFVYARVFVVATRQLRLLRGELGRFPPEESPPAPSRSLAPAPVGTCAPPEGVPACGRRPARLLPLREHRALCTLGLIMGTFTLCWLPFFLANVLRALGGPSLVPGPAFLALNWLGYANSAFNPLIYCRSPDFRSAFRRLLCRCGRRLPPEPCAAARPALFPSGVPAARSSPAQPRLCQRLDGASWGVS", "assay": "HTRF cAMP antagonist assay (IC50 determination)", "format": "cell-based", "settings": "CHO-K1 cells stably expressing recombinant receptor; antagonism of isoproterenol at EC90; cAMP readout", "how_it_was_run": "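In this functional readout, recombinant CHO-K1 cells received compound, then isoproterenol at its EC90. After 1 h at room temperature, cAMP levels were determined by HTRF using an on-plate standard curve, and IC50 values were fitted.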"}, "[2]": {"tested_on": "normal rats", "assay": "Attenuation of negative contractile effect of BRL 37344 on left ventricular pressure in normal rats", "format": "in vivo, rat", "settings": "test compound infusion 3, 10, 30 or 60 mg/kg, BRL 37344 bolus 3 μg/kg", "experimental": "(§1) Beta-3 adrenergic receptor antagonists were evaluated for effects on cardiac contractility in normal and chronic heart failure (CHF) rats. Because beta-3 adrenergic receptor expression is weak in the normal rat heart, compounds were evaluated for the ability to attenuate the negative contractile effects of the beta-3 adrenergic receptor agonist BRL 37344 (Tocris Bioscience, Bristol, UK) in the normal rats. Because beta-3 adrenergic receptor expression is higher in the rat heart with CHF, a compound was evaluated for the ability to improve contractility compared to baseline in this CHF rat model.\nA direct determination of left ventricular function was used for all rats to evaluate the effects of compounds on left ventricular contractility. Right carotid artery catheterization was used for contractility measurements. The rats were anesthetized with an intraperitoneal injection of INACTIN® (Cat #T-133, Sigma, St. Louis, Mo.) (100 mg/kg body weight), and a Millar MIKRO-TIP® pressure catheter (Cat #SPR-320NR, Millar, Inc., Houston, Tex.) was passed through the carotid artery into left ventricle. Left ventricular pressure (LVP) was monitored by LabChart with POWERLAB® Data Acquisition System (ADlnstruments, Sydney, Australia).\nJugular vein catheterization was used for compound administration. A silastic catheter (Cat #427411, BD, Franklin Lakes, N.J.) was introduced into the jugular vein, and a right venous catheter was connected to an automated drug delivery system (11 Plus Syringe Pump, Harvard Apparatus, Holliston, Mass.).\nIn the normal rats, 3 mg/kg, 10 mg/kg, 30 mg/kg, or 60 mg/kg of test compounds were administered starting 30-45 minutes after catheter implantation. A bolus injection of BRL 37344 (3 μg/kg) was administered via the left jugular vein 15-20 minutes after test compound infusion was started, and five minutes before compound infusion was stopped. A blood sample (800 μl) was then taken from the left venous catheter five minutes after the bolus injection of BRL 37344 (FIG. 25)."}, "[3]": {"tested_on": "chronic heart failure (CHF) rats", "assay": "Left ventricular contractility in chronic heart failure (CHF) rats", "format": "in vivo, rat", "experimental": "as §1, with “model. […]” for “model.”\nHeart failure was evaluated weekly following surgery by testing impaired left ventricular function by echocardiography. Left ventricle end-diastolic volume (LVEDV) and left ventricle end-systolic volume (LVESV) were measured for at least three consecutive cardiac cycles in long-axis view images. Ejection Fraction (EF %) was calculated using the following formula: EF %=(LVEDV−LVESV)/LVEDV. […]\nA direct determination of left ventricular function was used for all rats to evaluate the effects of compounds on left ventricular contractility. […] Left ventricular pressure (LVP) was monitored by LabChart with POWERLAB® Data Acquisition System (ADlnstruments, Sydney, Australia). […]\nDevelopment of CHF was monitored by echocardiography in rats after the surgically-induced myocardial infarction. […]"}},
  "note": "Entries after “also recorded” stand apart in the source; their conditions may differ.",
  "data": [
    {"smiles": "O=S(=O)(CCO)c1cccc(OC[C@@H](O)CN[C@H]2COC3(CCN(S(=O)(=O)c4cnc5ccccc5c4)CC3)C2)c1", "note": "[Compound 88, (S)-1-(3-(2-hydroxyethylsulfonyl)phenoxy)-3-((R)-8-(quinolin-3-ylsulfonyl)-1-oxa-8-azaspiro[4.5]decan-3-ylamino)propan-2-ol]", "values": [
      {"measurement": "IC50", "setting": "[1]", "result": 25.1, "unit": "nM"},
      {"measurement": "inhibition of the negative effect of beta-3 adrenergic receptor agonist BRL on LVP", "setting": "[2]", "result": "dose-dependently inhibited; also recorded: inhibition of negative effects of BRL on LVP"},
      {"measurement": "contractility compared to baseline", "setting": "[3]; rat with CHF, infusion 10 mg/kg then 30 mg/kg, 10 minutes each", "result": "trend toward improved contractility with increased dosage"},
      {"measurement": "inhibition of negative effects of BRL on LVP in a rat with heart failure (figure legend)", "setting": "[3]; rat with heart failure, FIG. 32", "result": "inhibition of negative effects of BRL on LVP"}
    ]},
    {"smiles": "NC(=O)CS(=O)(=O)c1cccc(OC[C@@H](O)CN[C@H]2COC3(CCN(S(=O)(=O)c4cnc5ccccc5c4)CC3)C2)c1", "note": "[Compound 123, 2-(3-((S)-2-hydroxy-3-((R)-8-(quinolin-3-ylsulfonyl)-1-oxa-8-azaspiro[4.5]decan-3-ylamino)propoxy)phenylsulfonyl)acetamide]", "values": [
      {"measurement": "IC50", "setting": "[1]", "result": 53.2, "unit": "nM"},
      {"measurement": "inhibition of the negative effect of beta-3 adrenergic receptor agonist BRL on LVP", "setting": "[2]", "result": "dose-dependently inhibited; also recorded: inhibition of negative effects of BRL on LVP"}
    ]},
    {"smiles": "CN1CCOc2ncc(S(=O)(=O)N3CCC4(CC3)C[C@@H](NC[C@H](O)COc3cccc(S(=O)(=O)C5CC5)c3)CO4)cc21", "note": "[Compound 154, (S)-1-(3-(cyclopropylsulfonyl)phenoxy)-3-((R)-8-(1-methyl-2,3-dihydro-1H-pyrido[2,3-b][1,4]oxazin-7-ylsulfonyl)-1-oxa-8-azaspiro[4.5]decan-3-ylamino)propan-2-ol]", "values": [
      {"measurement": "IC50", "setting": "[1]", "result": 17.5, "unit": "nM"},
      {"measurement": "inhibition of the negative effect of beta-3 adrenergic receptor agonist BRL on LVP", "setting": "[2]", "result": "dose-dependently inhibited; also recorded: inhibition of negative effects of BRL on LVP"}
    ]},
    {"smiles": "CCOc1ccc(-c2ccc(CN)cc2)cc1S(=O)(=O)N1CCC2(CC1)C[C@H](NC[C@H](O)COc1cccc(S(=O)(=O)C3(CO)CC3)c1)CO2", "note": "[Compound 163, (S)-1-((S)-8-(4′-(aminomethyl)-4-ethoxybiphenyl-3-ylsulfonyl)-1-oxa-8-azaspiro[4.5]decan-3-ylamino)-3-(3-(1-(hydroxymethyl)cyclopropylsulfonyl)phenoxy)propan-2-ol]", "values": [
      {"measurement": "IC50", "setting": "[1]", "result": 17.3, "unit": "nM"},
      {"measurement": "inhibition of the negative effect of beta-3 adrenergic receptor agonist BRL on LVP", "setting": "[2]", "result": "dose-dependently inhibited; also recorded: inhibition of negative effects of BRL on LVP"}
    ]},
    {"smiles": "CCn1cc(S(=O)(=O)N2CCC3(CC2)C[C@@H](NC[C@H](O)COc2cccc(S(C)(=O)=O)c2)CO3)c(=O)c2ccccc21", "note": "[Compound 310, 1-ethyl-3-((R)-3-((S)-2-hydroxy-3-(3-(methylsulfonyl)phenoxy)propylamino)-1-oxa-8-azaspiro[4.5]decan-8-ylsulfonyl)quinolin-4(1H)-one]", "values": [
      {"measurement": "IC50", "setting": "[1]", "result": 37.6, "unit": "nM"},
      {"measurement": "inhibition of the negative effect of beta-3 adrenergic receptor agonist BRL on LVP", "setting": "[2]", "result": "dose-dependently inhibited; also recorded: inhibition of negative effects of BRL on LVP"}
    ]},
    {"smiles": "CS(=O)(=O)Cc1cccc(OC[C@@H](O)CN[C@H]2COC3(CCN(S(=O)(=O)c4ccc5ncccc5c4)CC3)C2)c1", "note": "[Compound 336, (S)-1-(3-(methylsulfonylmethyl)phenoxy)-3-((R)-8-(quinolin-6-ylsulfonyl)-1-oxa-8-azaspiro[4.5]decan-3-ylamino)propan-2-ol]", "values": [
      {"measurement": "IC50", "setting": "[1]", "result": 102, "unit": "nM"}
    ]},
    {"smiles": "CCn1cc(S(=O)(=O)N2CCC3(CC2)C[C@@H](NC[C@@H](O)COc2cccc(S(C)(=O)=O)c2)CO3)c(=O)c2ccccc21", "note": "[Compound 337, 1-ethyl-3-((R)-3-((R)-2-hydroxy-3-(3-(methylsulfonyl)phenoxy)propylamino)-1-oxa-8-azaspiro[4.5]decan-8-ylsulfonyl)quinolin-4(1H)-one]", "values": [
      {"measurement": "IC50", "setting": "[1]", "result": 1690, "unit": "nM"}
    ]},
    {"smiles": "CCn1cc(S(=O)(=O)N2CCC3(CC2)C[C@H](NC[C@H](O)COc2cccc(S(C)(=O)=O)c2)CO3)c(=O)c2ccccc21", "note": "[Compound 338, 1-ethyl-3-((S)-3-((S)-2-hydroxy-3-(3-(methylsulfonyl)phenoxy)propylamino)-1-oxa-8-azaspiro[4.5]decan-8-ylsulfonyl)quinolin-4(1H)-one]", "values": [
      {"measurement": "IC50", "setting": "[1]", "result": 32.2, "unit": "nM"}
    ]}
  ]
}
